The results in this text go back to article PMC10239048, “Synthesis and antioxidant, antimicrobial, and antiviral activity of some pyrazole-based heterocycles using a 2(3H)-furanone derivative” (Journal of the Iranian Chemical Society, 2023).

Structures are written as SMILES. ≈ marks a conversion by molar mass, not a printed value.

The nature of data set [1]: Total antioxidant capacity (TAC), phosphomolybdenum method. The note with it: for Total antioxidant capacity: 500 µg/ml in methanol, 95 °C 90 min, 695 nm, means ± S.D., n = 3.
Data set [2] concerns Staphylococcus aureus. In words: Agar/disk diffusion inhibition zone, Staphylococcus aureus. In kind it is cell-based. The note with it: diffusion method. On the technique in general: A growth-free zone around the sample is the usual read-out of agar diffusion tests.
In data set [3] the test system is Haemophilus (Gram –ve). In words: Agar/disk diffusion inhibition zone, Haemophilus. In kind it is cell-based. The note with it: diffusion method.
The subject of data set [4] is avian influenza HPAI-H5N1 (AIV). The arrangement: species or system avian influenza virus HPAI-H5N1. As to conditions: in vivo.
For data set [5] the test system is unchanged. The arrangement: species or system avian influenza virus HPAI-H5N1. The note with it: in vivo. The source holds these as a separate data set.
For data set [6], the system named is Haemophilus (Gram –ve). The experiment in a line: MIC measurement by serial dilution, Haemophilus. The format is cell-based. As to conditions: read-out: MIC Haemophilus (Gram –ve).
A further data set concerns SPF chicks. In words: Immune-boosting properties in vaccinated SPF chicks (humeral response). As to conditions: for Humeral response of vaccinated groups which received each tested compound separately: SPF chicks, vaccine-only group 7 log2. In kind it is in vivo, chicken.
The subject of a further data set is Candida albicans. The experiment in a line: Agar diffusion antifungal activity, Candida albicans. The format is cell-based. As to conditions: diffusion method.
Data set [7] has as its system Staphylococcus aureus. In words: MIC measurement by serial dilution, Staphylococcus aureus. The note with it: 37 °C, 24–72 h, read-out: MIC Staph (Gram + ve). The format is cell-based.
Data set [8] concerns embryonated chicken SPF eggs. As to conditions: in vivo.

For `Cc1ccc(C2=CC(=Cc3c(C)nn(-c4ccccc4)c3Cl)C(=O)N2Cc2ccccc2)cc1`, the melting point lay in the range of 152 to 154 °C.

Consider `CC(=O)NN1C(=O)C(=Cc2c(C)nn(-c3ccccc3)c2Cl)C=C1c1ccc(C)cc1` [Compound 12, N-(3-((5-Chloro-3-methyl-1-phenyl-1H-pyrazol-4-yl)methylene)-2-oxo-5-(p-tolyl)-2,3-dihydro-1H-pyrrol-1-yl)acetamide], for which the melting point is 114 to 116 °C. In addition, in data set [1], the “Antioxidant activity (in words)” value is “Moderate antioxidant activity” and the Total antioxidant capacity is given as 163.0 ± 1.75 mg AAE/g dry compound.

Regarding `Cc1ccc(C2=CC(=Cc3c(C)nn(-c4ccccc4)c3Cl)C(=O)N2N=Cc2ccc(Cl)cc2)cc1` [Compound 15, 3-((5-Chloro-3-methyl-1-phenyl-1H-pyrazol-4-yl)methylene)-1-((4-chlorobenzylidene)-amino)-5-(p-tolyl)-1,3-dihydro-2H-pyrrol-2-one], in the data set with Staphylococcus aureus [2], the “Inhibition diameter Staph (Gram + ve)” value is on record as 6 mm. Moreover, in the data set with Haemophilus (Gram –ve) [3], the “Inhibition diameter Haemophilus (Gram –ve)” value is given as 7 mm. For the same molecule, the “Antiviral activity against avian influenza virus (in words)” value in data set [4] is listed as “little antiviral activity”. Further, the “Virus titer with compound” value in data set [4] was 10^5. The molecule also returned a Total antioxidant capacity in data set [1] of 262.27 ± 2.51 mg AAE/g dry compound. In data set [5], the TI was 55.5. In addition, the MIC stood at 16 µg/mL (≈ 31.2 µM) in the data set on Haemophilus (Gram –ve) [6] and 18 µg/mL in the data set with Staphylococcus aureus [7]. Besides, in the data set with SPF chicks, the “Humeral response of vaccinated groups which received each tested compound separately” value is 6.6 log2. In the data set on Candida albicans, the “Candida albicans (diameter of inhibition zone)” value worked out at 6 mm. For the same molecule, in data set [8], the CC50 is given as 500 > µl/ egg.

For the molecule `Cc1ccc(C(=O)CC(=Cc2c(C)nn(-c3ccccc3)c2Cl)C(=O)NN=Cc2cn(-c3ccccc3)nc2-c2ccccc2)cc1` [Compound 16, 2-((5-Chloro-3-methyl-1-phenyl-1H-pyrazol-4-yl)methylene)-N'-((1,3-diphenyl-1H-pyrazol-4-yl)methylene)-4-oxo-4-(p-tolyl)butanehydrazide], in the data set with Staphylococcus aureus [2], the “Inhibition diameter Staph (Gram + ve)” value is listed as 22 mm. For the same molecule, in the data set on Haemophilus (Gram –ve) [3], the “Inhibition diameter Haemophilus (Gram –ve)” value is recorded as 23 mm. Further, in [4], the “Antiviral activity against avian influenza virus (in words)” value is recorded as “remarked antiviral activity” and the “Virus titer with compound” value was 10^1. In [1], this molecule gave a Total antioxidant capacity of 205.82 ± 2.45 mg AAE/g dry compound. The TI in [5] was determined as 83.3. Moreover, the MIC in the data set with Haemophilus (Gram –ve) [6] is 6 µg/mL (≈ 9.39 µM). In the data set with SPF chicks, the “Humeral response of vaccinated groups which received each tested compound separately” value is listed as 7.2 log2. Further, the “Immune-boosting properties (in words)” value in the data set on SPF chicks (antibody titer in serum of vaccinated chicks) is “special immune-boosting properties”. Also, in the data set on Candida albicans, the “Candida albicans (diameter of inhibition zone)” value came to 23 mm. Moreover, in the data set on Staphylococcus aureus [7], the MIC worked out at 5 µg/mL. Besides, the CC50 in [8] is recorded as 500 > µl/ egg.

By melting point is commonly meant the temperature of the solid-liquid transition. As usually defined, the MIC is the least concentration at which growth counts as inhibited.
